Measured values published in PubChem BioAssay (NCI).
Several values for one entry are separate records, joined by “and”; a condition that tells them apart may be missing. Equal entries are not always repeated.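 Five concentrations, 48 hours, 96-well plates. GI50 marks 50% less growth. TGI: total growth inhibition.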

How the values were obtained:
Assay in all cases: inhibition of tumour cell growth, NCI panel, 48 h
CAKI-1 renal = test system: CAKI-1 renal
M14 melanoma = test system: M14 melanoma
HL-60(TB) leukemia = test system: HL-60(TB) leukemia
HT29 colon = test system: HT29 colon
UACC-62 melanoma = test system: UACC-62 melanoma
OVCAR-5 ovarian = test system: OVCAR-5 ovarian
OVCAR-4 ovarian = test system: OVCAR-4 ovarian
BT-549 breast = test system: BT-549 breast
SK-MEL-5 melanoma = test system: SK-MEL-5 melanoma
EKVX NSCLC = test system: EKVX NSCLC

Row | Structure (SMILES) | GI50 (CAKI-1 renal) | TGI (CAKI-1 renal) | GI50 (M14 melanoma) | TGI (M14 melanoma) | GI50 (HL-60(TB) leukemia) | TGI (HL-60(TB) leukemia) | GI50 (HT29 colon) | TGI (HT29 colon) | GI50 (UACC-62 melanoma) | TGI (UACC-62 melanoma) | GI50 (OVCAR-5 ovarian) | TGI (OVCAR-5 ovarian) | GI50 (OVCAR-4 ovarian) | TGI (OVCAR-4 ovarian) | GI50 (BT-549 breast) | TGI (BT-549 breast) | GI50 (SK-MEL-5 melanoma) | TGI (SK-MEL-5 melanoma) | GI50 (EKVX NSCLC) | TGI (EKVX NSCLC)
1 | CC(C)(C)c1cc(-c2nc3c(F)c(F)c(F)c(F)c3[nH]2)cc(C(C)(C)C)c1O | > 100 µM | > 100 µM | > 100 µM | > 100 µM | > 100 µM | > 100 µM | > 100 µM | > 100 µM | > 100 µM | > 100 µM | > 100 µM | > 100 µM | > 100 µM | > 100 µM | > 100 µM | > 100 µM | > 100 µM | > 100 µM | > 100 µM | > 100 µM
2 | Nc1ncnc2c1ncn2C1OC(COC2C(CO)OC(OC(C(=O)O)C(O)C(OP(=O)(O)O)C(O)C(=O)O)C(O)C2O)C(O)C1O (stereo not given) | – | > 100 µM | – | > 100 µM | – | > 100 µM | – | > 100 µM | – | – | – | > 100 µM | – | > 100 µM | – | > 100 µM | – | > 100 µM | – | > 100 µM
3 | COc1cc(C)c(NC(=O)CN(C)C)cc1Nc1nc(Nc2cccc(F)c2C(N)=O)c2cc[nH]c2n1 | 3.68 µM | 9.95 µM | 1.1 µM | 5.98 µM | 0.0205 µM | 0.875 µM | 0.00981 µM | 0.725 µM | 1.16 µM | 7.89 µM | 0.0336 µM | 3.63 µM | 2.92 µM | 7.43 µM | 4.35 µM | 18.9 µM | 0.69 µM | 4.36 µM | 0.937 µM | 12.5 µM
4 | O=C(O)CCSC(=S)Nc1ccc([N+](=O)[O-])cc1 | – | > 100 µM | – | > 100 µM | – | 48.6 µM | – | > 100 µM | – | 46.7 µM | – | > 100 µM | – | > 100 µM | – | > 100 µM | – | 34.5 µM | – | > 100 µM
5 | Fc1cccc(-c2[nH]nc3nc(Nc4cccnc4)sc23)c1 | 3.72 µM | > 100 µM | 11.3 µM | > 100 µM | 1.24 µM | > 100 µM | – | – | > 100 µM | > 100 µM | > 100 µM | > 100 µM | 16.1 µM | > 100 µM | 14.9 µM | 47 µM | 0.593 µM | 23.9 µM | 6.75 µM | > 100 µM
6 | COC1=C(OC)[C@]2(OC)c3c(O)c(OC)c4c(c3O[C@@]23O[C@@H](c2ccccc2)CC=C3C1=O)[C@@H](O)C[C@H](c1ccccc1)O4 | 1.34 µM | 2.93 µM | 0.358 µM | 1.17 µM | 0.177 µM | 0.627 µM | 0.224 µM | 0.565 µM | 0.326 µM | 1.3 µM | 1.64 µM | 3.18 µM | 1.48 µM | 3.38 µM | 0.394 µM | 1.21 µM | 1.32 µM | 2.6 µM | 1.69 µM | 3.08 µM
7 | Nc1ccc(-c2ccc(-c3nc4cc(Cl)c(Cl)cc4[nH]3)cc2)cc1 | 0.353 µM | – | 0.0456 µM | > 37.1 µM | 8.22 µM | > 100 µM | 1.42 µM | > 100 µM | < 0.0215 µM | > 45 µM | 26.2 µM | > 100 µM | 3.01 µM | > 100 µM | 27.4 µM | > 100 µM | 1.42 µM | > 100 µM | 11.6 µM | > 100 µM
8 | CCCCCC/C=C1\CCC(CN(C)C)C1=O (stereo not given) | – | 9.51 µM | – | 16.7 µM | – | 4.8 µM | – | 14.5 µM | – | 14.9 µM | – | 30.8 µM | – | 45.3 µM | – | 53.1 µM | – | 27.5 µM | – | 42.3 µM
9 | O=C(O)c1ccccc1Nc1ccc2nnc(-c3ccncc3)n2n1 | 3.22 µM | 11.7 µM | 7.03 µM | 40.9 µM | 32.5 µM | > 100 µM | 5.66 µM | 24.2 µM | 5.18 µM | 19.5 µM | 17.4 µM | 79.3 µM | – | – | 2.59 µM | 8.33 µM | 3.92 µM | 14.8 µM | – | –
10 | N#CSc1ccc(S(N)(=O)=O)cc1 | – | > 100 µM | – | 45.5 µM | – | 37.1 µM | – | > 100 µM | – | > 100 µM | – | > 100 µM | – | 93.1 µM | – | > 100 µM | – | > 100 µM | – | > 100 µM
11 | Oc1c(I)cc(I)cc1CN(Cc1ccccn1)Cc1ccccn1 | 0.499 µM | 12.2 µM | 0.766 µM | 9.86 µM | 1.3 µM | 7.03 µM | 3.93 µM | 18 µM | 0.499 µM | 5.73 µM | 2.14 µM | 53.5 µM | 0.658 µM | > 44.1 µM | 1.12 µM | 13.8 µM | 0.542 µM | 2.59 µM | 0.987 µM | 17.2 µM
12 | CCCCCCNCCCNc1c2ccccc2nc2cccc([N+](=O)[O-])c12 | – | 0.271 µM | – | 0.0247 µM and 0.0205 µM | 0.0216 µM | – | – | 0.0268 µM and 0.124 µM | 0.0181 µM | 0.131 µM and 0.0618 µM | 0.0207 µM | 0.194 µM and 0.151 µM | 0.0115 µM | 0.0419 µM and 0.0486 µM | 0.212 µM | 0.271 µM and 0.448 µM | – | 0.0258 µM and 0.0243 µM | 0.185 µM | 0.12 µM and 0.812 µM
13 | Cc1cc(N(CCOS(C)(=O)=O)CCOS(C)(=O)=O)ccc1C=Nc1ccc(-c2csc(-c3ccc(Br)cc3)n2)cc1 | – | 3.96 µM | – | 50.1 µM | – | 55.9 µM | – | 44.6 µM | – | 22.3 µM | – | 54.9 µM | – | 84.9 µM | – | > 76.4 µM | – | 34.1 µM | – | 37.7 µM
14 | CSC1(CC(=O)N2CCCCC2)C(=O)Nc2ccccc21 (stereo not given) | – | – | – | > 100 µM | – | – | – | > 100 µM | – | > 100 µM | – | > 100 µM | – | > 100 µM | – | > 100 µM | – | > 100 µM | – | > 100 µM
15 | O=S(=O)(CCCCl)SCCCCl | – | > 100 µM | – | 47.3 µM | – | 24.5 µM | – | 62.5 µM | – | > 100 µM | – | > 94.3 µM | – | 24.2 µM | – | 28.1 µM | – | > 94.1 µM | – | > 100 µM
